The text below walks through data of patent publication US20070243180A1, “Composition Containing Reduced Coenzyme Q” (priority 2003, published 2007).

Molecules are shown by their SMILES.

Data set [1] is described as follows: Stability testing of reduced coenzyme Q10 against autooxidation on storage in air, protected against light. In kind it is physicochemical. To be noted: in the presence of air, at 4 weeks after starting storage, HPLC. On the procedure: In the examples, a reduced coenzyme Q concentration and an oxidized coenzyme Q concentration were determined by the following HPLC analysis. Column; SYMMETRY C18 (product of Waters Corporation), 250 mm (length), 4.6 mm (inside diameter), mobile phase; C2H5OH:CH3OH=4:3 (v:v), detection wavelength; 210 nm, flow rate; 1 ml/min, retention time for a reduced coenzyme Q10; 9.1 min, retention time for an oxidized coenzyme Q10; 13.3 min. Reduced coenzyme Q10 bulk powder (Q-OH bulk powder) containing 2% of oxidized coenzyme Q10 and the powdery compositions I to IV respectively obtained in Examples 1 to 4 were subjected to stability testing in the following manner. Thus, each composition (test sample) was placed in a microtube and stored, in a state protected against light, at 23° C. or 40° C. in the presence of air. After 1, 2 or 4 weeks of storage, 25 mg of each sample was sampled and dissolved in ethanol, the concentrations of oxidized coenzyme Q10 and reduced coenzyme Q10 were measured by HPLC and the percentage of reduced coenzyme Q10 in total coenzyme Q10 as contained in the composition (test sample) was determined.

The nature of data set [2]: Solubility testing in water. In kind it is physicochemical. To be noted: 1 g in 100 ml of water, stirred at 5,000 rpm for 30 seconds, observed after 1 hour of standing. As to the method: Coenzyme Q10 bulk powder (Q-OH bulk powder) containing 98% of reduced coenzyme Q10 and the powdery compositions obtained in Examples 1 to 4 were subjected to solubility testing in the following manner. Thus, 1 g of each composition (test sample) was added to 100 ml of water, and the mixture was stirred at 5,000 rpm for 30 seconds using a mixer and then allowed to stand.

On to `COc1c(O)c(C)c(C/C=C(\C)CC/C=C(\C)CC/C=C(\C)CC/C=C(\C)CC/C=C(\C)CC/C=C(\C)CC/C=C(\C)CC/C=C(\C)CC/C=C(\C)CCC=C(C)C)c(O)c1OC` [reduced coenzyme Q10], for which the results for the “residual reduced coenzyme Q10 percentage relative to total coenzyme Q10 contained in the composition” value in data set [1] (stored at 23° C.) and in data set [1] (stored at 40° C.) were 41% and 11%, respectively. Moreover, the Solubility in water entry in data set [2] is on record as “Insoluble”; in data set [2] (listed as Coenzyme Q10 bulk powder (Q-OH bulk powder)), “insoluble, forming orange-colored oil drops floating on the water”.
